Results published in patent US9265781B2, “Process for producing a particulate composition comprising anhydrous crystalline 2-O-alpha-D-glucosyl-L-ascorbic acid” (HAYASHIBARA CO., LTD., priority 2009, dated 2016).

What was measured:
Type in all cases: physicochemical
[1] = Caking test (Experiment 1-4); set-up: key: “Caked”, (+): Sample clearly keeps the hemispherical shape of the bottom of the tube even when placed on the plate; “Slightly caked”, (±): Sample slightly but distinguishably shows the hemispherical shape of the bottom of the tube; “Not caked” (−): Sample does not keep the hemispherical shape of the bottom of the tube; details: 1 g in 14-ml polypropylene tube, 50° C., 24 hours, macroscopic observation
Description: The following experiment was performed to investigate the caking of respective Test samples 1 to 4: One gram aliquots of each of Test samples 1 to 4, prepared in Experiment 1-1, were separately filled into “FALCON TUBE 2059”, a product name of a 14-ml polypropylene cylindrical tube (1.7 cm in diameter, 10 cm in height) having a hemispherical bottom shape and a cap, commercialized by Becton, Dickinson and Company, New Jersey, USA. The tubes were uprightly set to a tube rack and allowed to stand for 24 hours, after the tube rack was placed in “IC-410”, a product name of an incubator commercialized Advantec Toyo Kaisha, Ltd., Tokyo, Japan, controlled at 50° C. After the incubation, the tubes were taken out from the incubator, followed by removing each cap, taking out each test sample from each tube to place it on a black-plastic-plane plate by turning the tubes upside down slowly, and macroscopically observing the conditions of the resulting test samples.

[2] = Storage stability test (Experiment 3-2); set-up: key: “Caked” (+), clump(s) is/are detected in a test sample and the flowability of the test sample has lowered in comparison with that at the initiation of the test; “Not caked” (−), no clump is detected in a test sample and the flowability of the test sample has not been changed in comparison with that at the initiation of the test; details: 10 kg in open polyethylene-double-bag in uncapped steel can, 45 days; flowability and caked state
From the text: To confirm that the caking test conducted in Experiment 1-4, etc., is a proper test for evaluating the caking of a particulate composition containing anhydrous crystalline ascorbic acid 2-glucoside when actually stored, Test sample 1 obtained in Experiment 1-1, Test samples 10 to 15 obtained in Experiment 3-1, and Test sample 16 were subjected to a storage stability test which was designed by taking account of conditions, environment, and period of time for actual storage of a particulate composition containing anhydrous crystalline ascorbic acid 2-glucoside.
Ten kilogram aliquots of any of Test samples 1 and 10 to 16 were respectively weighed and placed in a polyethylene-double-bag (800 mm by 600 mm) for each test sample. Then, each bag was placed in a 18-liter steel can in such a manner of allowing the opening part of each bag to open and stand upright without closing the opening part, allowing the bags to stand without capping the steel cans, and storing for 45 days in a room away from a relatively high temperature and humidity. After 45 days storage, each polyethylene-double-bag enclosing any of the test samples was taken out from the cans, and the samples were taken out from the bags and placed on a black-plastic-plane-plate for macroscopic observation of their flowabilities and caked states.
The test samples were judged about their caking by the following criteria: “Caked” (+), clump(s) is/are detected in a test sample and the flowability of the test sample has lowered in comparison with that at the initiation of the test; and “Not caked” (−), no clump is detected in a test sample and the flowability of the test sample has not been changed in comparison with that at the initiation of the test. The storage form of each test sample in the storage stability test is the same as that of a quasi-drug-grade powder that is commercially distributed and stored, except for not closing the opening part of the bag with a rubber band, not putting in any desiccant, and being stored in a steel can without closing it with a lid. The above three differences were of those, which had been set as a storage environment for a storage test that was slightly harder than an actual storage environment, to expedite the test results. The results are in Table 3 in parallel.

[3] = Solubility in hydrophilic solvent, 30% 1,3-butylene glycol (Experiment 6); details: same test as in Experiment 6
From the text: Any one of the above test samples and the particulate compositions of Examples 1 to 4 was weighed 0.25 g and placed in “FALCON TUBE 2059”, a product name of a 14-ml polypropylene cylindrical tube having a hemispherical bottom shape and a cap, commercialized by Becton, Dickinson and Company, New Jersey, USA. […]

Row | SMILES | Caking [1] | Storage stability [2] | Solubility in 1,3-butylene glycol (judgement in words) [3]
1 | O=C1O[C@H]([C@@H](O)CO)C(O)=C1O[C@H]1O[C@H](CO)[C@@H](O)[C@H](O)[C@H]1O [Test sample 5, 2-O-α-D-glucosyl-L-ascorbic acid] | − |  | 
2 | O=C1O[C@H]([C@@H](O)CO)C(O)=C1O[C@H]1O[C@H](CO)[C@@H](O)[C@H](O)[C@H]1O [Test sample 1, 2-O-α-D-glucosyl-L-ascorbic acid] | − | − | 
3 | O=C1O[C@H]([C@@H](O)CO)C(O)=C1O[C@H]1O[C@H](CO)[C@@H](O)[C@H](O)[C@H]1O [Example 1, 2-O-α-D-glucosyl-L-ascorbic acid] | − | − | 
4 | O=C1O[C@H]([C@@H](O)CO)C(O)=C1O[C@H]1O[C@H](CO)[C@@H](O)[C@H](O)[C@H]1O [Test sample 7, 2-O-α-D-glucosyl-L-ascorbic acid] | − |  | 
5 | O=C1O[C@H]([C@@H](O)CO)C(O)=C1O[C@H]1O[C@H](CO)[C@@H](O)[C@H](O)[C@H]1O [Test sample 10, 2-O-α-D-glucosyl-L-ascorbic acid] | + | + | 
6 | O=C1O[C@H]([C@@H](O)CO)C(O)=C1O[C@H]1O[C@H](CO)[C@@H](O)[C@H](O)[C@H]1O [Test sample 11, 2-O-α-D-glucosyl-L-ascorbic acid] | ± | + | 
7 | O=C1O[C@H]([C@@H](O)CO)C(O)=C1O[C@H]1O[C@H](CO)[C@@H](O)[C@H](O)[C@H]1O [Example 7, 2-O-α-D-glucosyl-L-ascorbic acid] | − |  | Passable solubility
8 | O=C1O[C@H]([C@@H](O)CO)C(O)=C1O[C@H]1O[C@H](CO)[C@@H](O)[C@H](O)[C@H]1O [Test sample 2, 2-O-α-D-glucosyl-L-ascorbic acid] | + |  | 
9 | O=C1O[C@H]([C@@H](O)CO)C(O)=C1O[C@H]1O[C@H](CO)[C@@H](O)[C@H](O)[C@H]1O [Test sample 22, 2-O-α-D-glucosyl-L-ascorbic acid] | − | − | 
10 | O=C1O[C@H]([C@@H](O)CO)C(O)=C1O[C@H]1O[C@H](CO)[C@@H](O)[C@H](O)[C@H]1O [Example 2, 2-O-α-D-glucosyl-L-ascorbic acid] | − | − | 
11 | O=C1O[C@H]([C@@H](O)CO)C(O)=C1O[C@H]1O[C@H](CO)[C@@H](O)[C@H](O)[C@H]1O [Test sample 3, 2-O-α-D-glucosyl-L-ascorbic acid] | + |  | 
12 | O=C1O[C@H]([C@@H](O)CO)C(O)=C1O[C@H]1O[C@H](CO)[C@@H](O)[C@H](O)[C@H]1O [Test sample 19, 2-O-α-D-glucosyl-L-ascorbic acid] | − | − | 
13 | O=C1O[C@H]([C@@H](O)CO)C(O)=C1O[C@H]1O[C@H](CO)[C@@H](O)[C@H](O)[C@H]1O [Test sample 8, 2-O-α-D-glucosyl-L-ascorbic acid] | ± |  | 
14 | O=C1O[C@H]([C@@H](O)CO)C(O)=C1O[C@H]1O[C@H](CO)[C@@H](O)[C@H](O)[C@H]1O [Example 6, 2-O-α-D-glucosyl-L-ascorbic acid] | − |  | Passable solubility
15 | O=C1O[C@H]([C@@H](O)CO)C(O)=C1O[C@H]1O[C@H](CO)[C@@H](O)[C@H](O)[C@H]1O [Comparative Example 2, 2-O-α-D-glucosyl-L-ascorbic acid] | + |  | Passable solubility
16 | O=C1O[C@H]([C@@H](O)CO)C(O)=C1O[C@H]1O[C@H](CO)[C@@H](O)[C@H](O)[C@H]1O [Test sample 6, 2-O-α-D-glucosyl-L-ascorbic acid] | − |  | 
17 | O=C1O[C@H]([C@@H](O)CO)C(O)=C1O[C@H]1O[C@H](CO)[C@@H](O)[C@H](O)[C@H]1O [Test sample 4, 2-O-α-D-glucosyl-L-ascorbic acid] | − |  | 
18 | O=C1O[C@H]([C@@H](O)CO)C(O)=C1O[C@H]1O[C@H](CO)[C@@H](O)[C@H](O)[C@H]1O [Example 4, 2-O-α-D-glucosyl-L-ascorbic acid] | − | − | 

Results, then the compound that gave them:

Row | Caking [1] | Storage stability [2] | Solubility in 1,3-butylene glycol (judgement in words) [3] | SMILES
19 | + | + |  | O=C1O[C@H]([C@@H](O)CO)C(O)=C1O[C@H]1O[C@H](CO)[C@@H](O)[C@H](O)[C@H]1O [Test sample 20, 2-O-α-D-glucosyl-L-ascorbic acid]
20 | − | − |  | O=C1O[C@H]([C@@H](O)CO)C(O)=C1O[C@H]1O[C@H](CO)[C@@H](O)[C@H](O)[C@H]1O [Test sample 21, 2-O-α-D-glucosyl-L-ascorbic acid]
21 | − | − |  | O=C1O[C@H]([C@@H](O)CO)C(O)=C1O[C@H]1O[C@H](CO)[C@@H](O)[C@H](O)[C@H]1O [Example 3, 2-O-α-D-glucosyl-L-ascorbic acid]
22 | − | − | Impassable solubility | O=C1O[C@H]([C@@H](O)CO)C(O)=C1O[C@H]1O[C@H](CO)[C@@H](O)[C@H](O)[C@H]1O [Example for Reference 1, 2-O-α-D-glucosyl-L-ascorbic acid]
23 | − and ± |  | Passable solubility | O=C1O[C@H]([C@@H](O)CO)C(O)=C1O[C@H]1O[C@H](CO)[C@@H](O)[C@H](O)[C@H]1O [Example 8, 2-O-α-D-glucosyl-L-ascorbic acid]
24 | + |  |  | O=C1O[C@H]([C@@H](O)CO)C(O)=C1O[C@H]1O[C@H](CO)[C@@H](O)[C@H](O)[C@H]1O [Test sample 9, 2-O-α-D-glucosyl-L-ascorbic acid]
25 | + |  | Passable solubility | O=C1O[C@H]([C@@H](O)CO)C(O)=C1O[C@H]1O[C@H](CO)[C@@H](O)[C@H](O)[C@H]1O [Comparative Example 1, 2-O-α-D-glucosyl-L-ascorbic acid]
26 | − |  | Passable solubility | O=C1O[C@H]([C@@H](O)CO)C(O)=C1O[C@H]1O[C@H](CO)[C@@H](O)[C@H](O)[C@H]1O [Example 5, 2-O-α-D-glucosyl-L-ascorbic acid]
27 | + |  |  | O=C1O[C@H]([C@@H](O)CO)C(O)=C1O[C@H]1O[C@H](CO)[C@@H](O)[C@H](O)[C@H]1O [Test sample 28, 2-O-α-D-glucosyl-L-ascorbic acid]
